{
  "source": "patent US9855239B2",
  "about": "“Methods for the treatment and prevention of age-related retinal dysfunction” (University of Washington, priority 2008, dated 2018)",
  "key": {"[1]": {"experiment": "A2E accumulation in eyes after long-term treatment", "type": "in vivo, mouse", "method": "(§1) To evaluate the safety of long-term administration of 9-cis-R-Ac, A2E accumulation was measured (FIG. 6A), because retinals spontaneously condense to this compound (Mata, N. L., Weng, J. & Travis, G. H. Proceedings of the National Academy of Sciences of the United States of America 97, 7154-7159 (2000); Parish, C. A., Hashimoto, M., Nakanishi, K., Dillon, J. & Sparrow, J. Proceedings of the National Academy of Sciences of the United States of America 95, 14609-14613 (1998)).\nAll experimental procedures related to extraction, derivatization and separation of retinoids were carried out under dim red light provided by a Kodak No. 1 safelight filter (transmittance>560 nm) as described previously (Van Hooser, J. P., et al. Proceedings of the National Academy of Sciences of the United States of America 97, 8623-8628 (2000); Van Hooser, J. P., et al. J Biol Chem, 277, 19173-19182 (2002); Maeda, A., et al. J Biol Chem 280, 18822-18832 (2005); Van Hooser, J. P., Garwin, G. G. & Saari, J. C. Methods Enzymol 316, 565-575 (2000)). […] The combined extracts were dried under argon and retinoids were separated by normal phase HPLC (Beckman, Ultrasphere-Si, 5 μm, 4.6×250 mm) with 10% ethyl acetate and 90% hexane at a flow rate of 1.4 ml/min and detected at 325 nm by an HPI 100 HPLC with a diode array detector and HP Chemstation A.03.03 software. […]"}, "[2]": {"system": "retina", "experiment": "Retinal morphology (light and electron microscopy)", "type": "in vivo, mouse", "method": "The thickness of each major layer in the retina was also similar between control and treated groups.\nFor light microscopy, mouse eyecups were fixed with 2.5% glutaraldehyde and 1.6% paraformaldehyde in 0.08 M 1,4-piperazinediethanesulfonate buffer (PIPES) (pH 7.4) containing 2% sucrose for ˜1 hr at room temperature followed by 23 hr at 4° C. Eyecups then were washed with 0.13 M sodium phosphate buffer (pH 7.3) and dehydrated through a CH3OH series and embedded in JB4 glycol metacrylate. Sections (6 μm) were stained by immersion in 5% Richardson's stain for 1.5-2 min at room temperature and destained in 0.13 M sodium phosphate (pH 7.3) until the retinal layers were visible by light microscopy (about 8-15 min). For transmission electron microscopy, mouse eyecups were analyzed as described previously (Maeda, A., et al. J Blot Chem 280, 18822-18832 (2005); Maeda, T., Lem, J., Palczewski, K. & Haeseleer, F. Investigative ophthalmology & visual science 46, 4320-4327 (2005))."}, "[3]": {"conditions": "mouse, in vivo", "experimental": "Animals were evaluated weekly for activity and changes in coat and skin appearance.\nFor the long-term study (FIGS. 1B and 1C, Table 1), mice were obtained at 3 months of age and raised until 4 months of age before the experiments were initiated. Mice then were gavaged with 9-cis-R-Ac or vehicle solution once a month for different durations. Six groups of mice were studied (FIG. 1B). The first 3 groups (C0 C1 and C2, total n=35 for each group) were treated as controls and tested at 4, 10 and 14 months of age. The other 3 groups (N1, N2 and N3, n=35) were gavaged with 9-cis-R-Ac. Group N1 was gavaged for 6 months and tested at 10 months of age. Group N2 was gavaged with 9-cis-R-Ac for 10 months and tested at 14 months of age. Group N3, was gavaged with vehicle until 10 months of age and then received 9-cis-R-Ac monthly until testing at 14 months of age."}, "[4]": {"biological_target": "T1, rhodopsin/opsin (Mus musculus, UniProt P15409)", "T1 construct": "from tissue; host or cells: whole eyes of wild-type C57BL/6 female mice", "T1 sequence (P15409 whole entry)": "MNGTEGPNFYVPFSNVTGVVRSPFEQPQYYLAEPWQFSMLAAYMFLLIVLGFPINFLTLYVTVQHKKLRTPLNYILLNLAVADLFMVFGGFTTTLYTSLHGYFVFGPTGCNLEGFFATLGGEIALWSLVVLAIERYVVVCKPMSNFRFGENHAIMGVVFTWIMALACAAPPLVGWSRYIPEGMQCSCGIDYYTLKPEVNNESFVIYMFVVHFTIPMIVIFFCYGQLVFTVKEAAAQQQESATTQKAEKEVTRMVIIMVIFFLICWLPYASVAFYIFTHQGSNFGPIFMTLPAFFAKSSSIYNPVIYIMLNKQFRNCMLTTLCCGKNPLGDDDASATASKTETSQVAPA", "experiment": "Purified rhodopsin/opsin analysis after long-term treatment", "type": "in vivo", "method": "Two weeks after the last gavage with either, 9-cis-R-Ac, all-trans-R-Ac or vehicle, groups of 48 hr dark-adapted mice were analyzed for recovery of dark adaptation after light exposure, purified rhodopsin/opsin and retinoids in the eye and retinal morphology (FIG. 1C; Methods). Mice were exposed to light of intensity 500 cd·m^−2 that bleached ˜90% of rhodopsin, anesthetized and monitored by ERG for one hr to evaluate recovery of dark adaptation. Rhodopsin was purified and rhodopsin/opsin ratios was determined. Retinoid analyses were performed on dissected eyes removed at 0, 10, 30, and 60 min after exposure to the same amount of light. Mice used to evaluate retinal morphology were not exposed to photobleaching prior to analysis.\nRhodopsin purification was done under dim red light as previously described (Zhu, L., et al. J Biot Chem, 279, 53828-53839 (2004)). Purified anti-rhodopsin C terminus antibody 1D4 (MacKenzie, D., Arendt, A., Hargrave, P., McDowell, J. H. & Molday, R. S. Biochemistry, 23, 6544-6549 (1984)) was immobilized on CNBr-activated Sepharose 4B and a 4.6×12-mm column was packed with 2 mg of 1 D4 antibody/ml of Sepharose beads. Mouse whole eyes were homogenized in 137 mM NaCl, 5.4 mM Na2HPO4, 2.7 mM KCl and 1.8 mM KH2PO4 (pH 7.5) with a glass-to-glass homogenizer. Soluble proteins in the supernatant were removed by centrifugation at 14,000×g for 5 min and the pellet was solubilized in buffer containing 1% dodecyl-β-maltoside in 10 mM Bis-Tris propane (pH 7.5) containing 500 mM NaCl. The supernatant was cleared by centrifugation at 125,000×g for 20 min and loaded onto an antibody 1 D4-packed immunoaffinity column which was then thoroughly washed at a flow rate of 0.5 ml/min with 10 mM Bis-Tris propane (pH 7.5) containing 500 mM NaCl and 0.1% dodecyl-β-maltoside. […] Purified rhodopsin concentration was determined at 500 nm and total amount of opsin and rhodopsin at 280 nm with a Hewlett-Packard 8452A UV-visible spectrophotometer (Palczewski, K., Carruth, M. E., Adamus, G., McDowell, J. H. & Hargrave, P. A. Vision Research, 30, 1129-1137 (1990))."}, "[5]": {"experiment": "Hepatic retinoic acid levels after long-term treatment", "type": "in vivo, mouse", "conditions": "all groups", "method": "as §1\nAnalysis of retinoic acid in the liver was carried out as described before (Batten, M. L., et al. PLoS Medicine 2, e333 (2005)) by an Agilent 1100 HPLC with two tandem normal phase columns: a Varian Microsorb Silica 3 μm, 4.6×100 mm (Varian, Palo Alto, Calif.) and an Ultrasphere-Si, 5 μm, 4.6×250 mm column. An isocratic solvent system of 1000:4.3:0.675 hexane:2-propanol:glacial acetic acid (v/v) was used at a flow rate of 1 ml/min at 20° C. with detection at 355 nm. Calibration was done with standards of all-trans-RA and 9-cis-RA purchased from Sigma-Aldrich."}, "[6]": {"system": "Lrat−/− and Rpe65−/− knockout mice", "conditions": "gastric gavage, Lrat−/− mice; cited from earlier work"}},
  "note": "Entries after “also recorded” stand apart in the source; their conditions may differ.",
  "data": [
    {"compound": "CC(=O)OC/C=C(C)/C=C/C=C(C)\\C=C\\C1=C(C)CCCC1(C)C", "note": "[9-cis-R-Ac, 9-cis-retinyl acetate]", "values": [
      {"measurement": "amounts of A2E in eyes", "setting": "[1]; all experimental groups (C1, C2, N1, N2, N3), FIG. 6B", "result": "did not differ significantly among all groups with the exception of N3, where they were slightly lower"},
      {"measurement": "A2E and iso-A2E levels in eyes", "setting": "[1]; long-term treatment, treated vs control at 10 and 14 months of age", "result": "did not accumulate"},
      {"measurement": "retinal abnormalities by light microscopy", "setting": "[2]; 10 and 14 months of age", "result": "no major abnormalities"},
      {"measurement": "EM analysis of the outer retina and RPE layer", "setting": "[2]; control vs treated", "result": "no gross differences"},
      {"measurement": "thickness of each major layer in the retina", "setting": "[2]; control vs treated", "result": "similar"},
      {"measurement": "lengths of rod outer segments (ROS)", "setting": "[2]; control vs treated at 10 and 14 months of age", "result": "similar"},
      {"measurement": "tolerability of long-term treatment", "setting": "[3]", "result": "well tolerated"},
      {"measurement": "amounts of purified protein recovered", "setting": "[4]; 10-month-old treated mice, N1 versus C1", "result": "only slightly attenuated"},
      {"measurement": "amounts of purified protein recovered", "setting": "[4]; 14 months of age, N2 and N3 vs C2", "result": "significantly lower"},
      {"measurement": "regeneration ratios (rhodopsin/opsin) and total amounts of purified rhodopsin", "setting": "[4]; long-term treatment, 10 and 14 months of age, control vs treated", "result": "no significant differences"},
      {"measurement": "hepatic retinoic acid levels", "setting": "[5]", "result": "below detectable levels; also recorded: did not accumulate"},
      {"measurement": "beneficial effects compared with 9-cis-retinal", "setting": "[6]", "result": "same beneficial effects as 9-cis-retinal"}
    ]}
  ]
}
